In publication PMC11844072, “Novel 5,6-dichlorobenzimidazole derivatives as dual BRAFWT and BRAFV600E inhibitors: design, synthesis, anti-cancer activity and molecular dynamics simulations” (BMC Chemistry, 2025):

How the values were obtained:
NCI-H226 = experiment: NCI 60 single concentration growth inhibition; assay type: cell-based, human; details: Homo sapiens, NCI-H226, Non-small cell lung cancer, read-out: GI%
How it was run: (§1)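 One-concentration growth inhibition used 10 µM over 48 h in RPMI 1640/5% FBS, with sulforhodamine B protein staining as the end point. Percent growth is expressed relative to untreated control cells.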

SN12C = experiment: NCI 60 single concentration growth inhibition; assay type: cell-based, human; details: Homo sapiens, Renal cancer, read-out: GI%
How it was run: as §1

SK-MEL-28 = experiment: NCI 60 single concentration growth inhibition; assay type: cell-based, human; details: Homo sapiens, SK-MEL-28, Melanoma, read-out: GI%
How it was run: as §1

SK-OV-3 = experiment: NCI 60 single concentration growth inhibition; assay type: cell-based, human; details: Homo sapiens, SK-OV-3, Ovarian cancer, read-out: GI%
How it was run: as §1

OVCAR-8 = experiment: NCI 60 single concentration growth inhibition; assay type: cell-based, human; details: Homo sapiens, OVCAR-8, Ovarian cancer, read-out: GI%
How it was run: as §1

ACHN = experiment: NCI 60 single concentration growth inhibition; assay type: cell-based, human; details: Homo sapiens, Renal cancer, read-out: GI%
How it was run: as §1

SF-295 = experiment: NCI 60 single concentration growth inhibition; assay type: cell-based, human; details: Homo sapiens, SF-295, CNS cancer, read-out: GI%
How it was run: as §1

A549/ATCC = experiment: NCI 60 single concentration growth inhibition; assay type: cell-based, human; details: Homo sapiens, Non-small cell lung cancer, read-out: GI%
How it was run: as §1

SR = experiment: NCI 60 single concentration growth inhibition; assay type: cell-based, human; details: Homo sapiens, Leukemia, read-out: GI%
How it was run: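 Single-dose screen: cells in RPMI 1640 with 5% FBS and 2 mM L-glutamine, pre-grown 24 h, then exposed to 10 µM compound for 48 h at 37 °C. Protein was measured by TCA fixation and sulforhodamine B staining at 515 nm, and percent growth was taken against time-zero and untreated wells.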

HOP-62 = experiment: NCI 60 single concentration growth inhibition; assay type: cell-based, human; details: Homo sapiens, HOP-62, Non-small cell lung cancer, read-out: GI%
How it was run: as §1

MCF7 = experiment: NCI 60 single concentration growth inhibition; assay type: cell-based, human; details: Homo sapiens, MCF7, Breast cancer, read-out: GI%
How it was run: as §1

SF-539 = experiment: NCI 60 single concentration growth inhibition; assay type: cell-based, human; details: Homo sapiens, SF-539, CNS cancer, read-out: GI%
How it was run: as §1

EKVX = experiment: NCI 60 single concentration growth inhibition; assay type: cell-based, human; details: Homo sapiens, Non-small cell lung cancer, read-out: GI%
How it was run: as §1

786-0 = experiment: NCI 60 single concentration growth inhibition; assay type: cell-based, human; details: Homo sapiens, 786-0, Renal cancer, read-out: GI%
How it was run: as §1

A498 = experiment: NCI 60 single concentration growth inhibition; assay type: cell-based, human; details: Homo sapiens, A498, Renal cancer, read-out: GI%
How it was run: as §1

PC-3 = experiment: NCI 60 single concentration growth inhibition; assay type: cell-based, human; details: Homo sapiens, PC-3, Prostate cancer, read-out: GI%
How it was run: as §1

[1] = system: NCI 60 cancer cell line panel; experiment: NCI 60 single concentration growth inhibition, panel mean; assay type: cell-based; details: Homo sapiens, mean over NCI 60 panel, read-out: Mean GI%
Description: The synthesized dichlorobenzimidazoles 10a–p were assayed for their influence on divers cancer cell lines according to the method presented in the Additional file A.
5. Screening of cytotoxic activity against a panel of sixty human tumor cell lines
The selected compounds by NCI were evaluated for their anticancer activity in a two-stage process. First, these compounds were screened against the full NCI 60 cell lines panel at a single high dose of 10 µM. Then, the output from the single dose screen is reported as a mean graph. […]
at five different minimal concentrations.
Assay protocol. The human tumor cell lines of the cancer screening panel are grown in RPMI 1640 medium containing 5% fetal bovine serum and 2 mM L-glutamine. For a typical screening experiment, cells are inoculated into 96 well microtiter plates in 100 µL at plating densities ranging from 5000 to 40,000 cells/well depending on the doubling time of individual cell lines. After cell inoculation, the microtiter plates are incubated at 37 °C, 5% CO 2, 95% air and 100% relative humidity for 24 h prior to addition of the experimental drugs.
After 24 h, two plates of each cell line are fixed in situ with TCA, to represent a measurement of the cell population for each cell line at the time of drug addition (Tz). The experimental drugs are solubilized in dimethyl sulfoxide at 400-fold the desired final maximum test concentration and stored frozen prior to use. At the time of drug addition, an aliquot of frozen concentrate is thawed and diluted to twice the desired final maximum test concentration with complete medium containing 50 µg/mL gentamicin. Additional four, 10-fold or ½ log serial dilutions are made to provide a total of five drug concentrations plus control.
Aliquots of […] of these different drug dilutions are added to the appropriate microtiter wells already containing […] of medium, resulting in the required final drug concentrations.
Following drug addition, the plates are incubated for an additional 48 h at 37 °C, 5% CO 2, 95% air, and 100% relative humidity. For adherent cells, the assay is terminated by the addition of cold TCA.
Cells are fixed in situ by the gentle addition of 50 µL of cold 50% (w/v) TCA (final concentration, 10% TCA) and incubated for 60 min at 4 °C. The supernatant is discarded, and the plates are washed five times with tap water and air dried. Sulforhodamine B (SRB) solution ([…]) at 0.4% (w/v) in 1% acetic acid is added to each well, and plates are incubated for 10 min at room temperature. After staining, unbound dye is removed by washing five times with 1% acetic acid and the plates are air dried. Bound stain is subsequently solubilized with 10 mM trizma base, and the absorbance is read on an automated plate reader at a wavelength of 515 nm. For suspension cells, the methodology is […]
the same except that the assay is terminated by fixing settled cells at the bottom of the wells by gently adding 50 µl of 80% TCA (final concentration, 16% TCA). Using the seven absorbance measurements [time zero, (Tz), control growth, (C), and test growth in the presence of drug at the five concentration levels (Ti)], the percentage growth is calculated at each of the drug concentrations […]
Percentage growth inhibition is calculated as: [(Ti Tz)/(C–Tz)] x 100 for concentrations for which Ti>/=Tz and [(Ti-Tz)/Tz] x 100 for concentrations for which Ti < Tz.
Three dose response parameters are calculated for each experimental agent. Growth […]
concentration resulting in a 50% reduction in the net protein increase (as measured by SRB staining) in control cells during the drug incubation. The drug concentration resulting in total growth inhibition (TGI) is calculated from Ti = Tz. […]
reduction in the measured protein at the end of the drug treatment as compared to that at the beginning) indicating a net loss of cells following treatment is calculated from [(Ti–Tz)/Tz] x 100 =
_50. Values are calculated for each of these three parameters if the level of activity is reached; […]

Row | SMILES | inhibition at 10 µM (NCI-H226) | inhibition at 10 µM (SN12C) | inhibition at 10 µM (SK-MEL-28) | inhibition at 10 µM (SK-OV-3) | inhibition at 10 µM (OVCAR-8) | inhibition at 10 µM (ACHN) | inhibition at 10 µM (SF-295) | inhibition at 10 µM (A549/ATCC) | inhibition at 10 µM (SR) | inhibition at 10 µM (HOP-62) | inhibition at 10 µM (MCF7) | inhibition at 10 µM (SF-539) | inhibition at 10 µM (EKVX) | inhibition at 10 µM (786-0) | inhibition at 10 µM (A498) | inhibition at 10 µM (PC-3) | inhibition at 10 µM [1]
1 | COc1ccc(C=NNC(=O)Cn2c(-c3ccc(OC)cc3)nc3cc(Cl)c(Cl)cc32)cc1 [Compound 10d, 2-(5,6-Dichloro-2-(4-methoxyphenyl)-1H-benzo[d]imidazol-1-yl)-N'-(4-methoxybenzylidene)acetohydrazide] | 33.9% | 27.8% | 33.5% | 30.4% | 22.4% | 40.2% | 66.8% | 59.4% | 35.1% | 23.6% | 81.5% | 34.2% | 76.8% | 29.1% | 47.2% | 68.5% | 44.6%
2 | COc1ccc(-c2nc3cc(Cl)c(Cl)cc3n2CC(=O)NN=Cc2cccc(OCC(=O)O)c2)cc1 [Compound 10e, 2-(3-((2-(2-(5,6-Dichloro-2-(4-methoxyphenyl)-1H-benzo[d]imidazol-1-yl)acetyl)hydrazono)methyl)phenoxy)acetic acid] | < 5% | < 5% | < 5% | < 5% | < 5% | < 5% | < 5% | < 5% | < 5% | < 5% | 13.6% | < 5% | < 5% | < 5% | < 5% | < 5% | < 5%
3 | COc1ccc(-c2nc3cc(Cl)c(Cl)cc3n2CC(=O)NN=Cc2ccc(OCC(=O)O)cc2)cc1 [Compound 10f, 2-(4-((2-(2-(5,6-Dichloro-2-(4-methoxyphenyl)-1H-benzo[d]imidazol-1-yl)acetyl)hydrazono)methyl)phenoxy)acetic acid] | < 5% | < 5% | < 5% | < 5% | < 5% | < 5% | < 5% | < 5% | < 5% | < 5% | 18.9% | 10.8% | 5.96% | < 5% | < 5% | 8.65% | < 5%
4 | COC(=O)COc1cccc(C=NNC(=O)Cn2c(-c3ccc(OC)cc3)nc3cc(Cl)c(Cl)cc32)c1 [Compound 10g, Methyl-2-(3-((2-(2-(5,6-dichloro-2-(4-methoxyphenyl)-1H-benzo[d]imidazol-1-yl)acetyl)hydrazono)methyl)phenoxy)acetate] | 8% | 40.7% | < 5% | < 5% | 84.2% | < 5% | < 5% | < 5% | 78.3% | < 5% | 31.9% | 26.5% | 13.2% | 10% | < 5% | 36.9% | 14.6%
5 | COC(=O)COc1ccc(C=NNC(=O)Cn2c(-c3ccc(OC)cc3)nc3cc(Cl)c(Cl)cc32)cc1 [Compound 10h, Methyl-2-(4-((2-(2-(5,6-dichloro-2-(4-methoxyphenyl)-1H-benzo[d]imidazol-1-yl)acetyl)hydrazono)methyl)phenoxy)acetate] | < 5% | 66.4% | 31.7% | < 5% | 148% | 106% | < 5% | < 5% | 81.1% | < 5% | 67.5% | 39.2% | < 5% | 112% | < 5% | 74.4% | 36.6%
6 | COc1ccc(-c2nc3cc(Cl)c(Cl)cc3n2CC(=O)NN=Cc2ccc(OC)c(O)c2)cc1 [Compound 10k, 2-(5,6-Dichloro-2-(4-methoxyphenyl)-1H-benzo[d]imidazol-1-yl)-N'-(3-hydroxy-4-methoxybenzylidene)acetohydrazide] | 48.1% | 16.3% | 17.3% | < 5% | 29.3% | 36.6% | 50% | 49.9% | 52.2% | < 5% | 68% | 29.1% | 56.4% | 25.3% | 29.7% | 56.6% | 35.4%
7 | COc1ccc(-c2nc3cc(Cl)c(Cl)cc3n2CC(=O)NN=Cc2ccc(O)c(OC)c2)cc1 [Compound 10l, 2-(5,6-Dichloro-2-(4-methoxyphenyl)-1H-benzo[d]imidazol-1-yl)-N'-(4-hydroxy-3-methoxybenzylidene)acetohydrazide] | 47.5% | 19.9% | 7.48% | 6.44% | 27.1% | 32.4% | 38.1% | 35.4% | 49.1% | 12.4% | 65.9% | 32.4% | 51.9% | 30.7% | 16.2% | 54.2% | 34.6%
